Measured values reported in ChEMBL document CHEMBL1201862, “PubChem BioAssay data set” (2004).
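Compound exposure: 48 hours, 5 concentrations, 96-well plates. At the GI50, growth is halved.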 Active and inactive are the calls of the source. No stated cut-off is given here; in the data, active = GI50 up to about 1.1 µM and inactive = higher.

Key:
Assay in all cases: inhibition of tumour cell growth, NCI panel, 48 h
[1] = test system: 786-0
[2] = test system: A498
[3] = test system: A549
[4] = test system: ACHN
[5] = test system: CCRF-CEM
[6] = test system: COLO 205
[7] = test system: DLD-1
[8] = test system: DMS-114
[9] = test system: DMS-273
[10] = test system: EKVX
[11] = test system: HCC 2998
[12] = test system: HCT-116
[13] = test system: HCT-15
[14] = test system: HL-60
[15] = test system: HOP-18
[16] = test system: HOP-62
[17] = test system: HOP-92
[18] = test system: HT-29
[19] = test system: IGROV-1
[20] = test system: K562
[21] = test system: KM-20L2
[22] = test system: KM12
[23] = test system: LOX IMVI
[24] = test system: LXFL 529
[25] = test system: M14
[26] = test system: M19-MEL
[27] = test system: MOLT-4
[28] = test system: Malme-3M
[29] = test system: NCI-H23
[30] = test system: NCI-H460
[31] = test system: OVCAR-3
[32] = test system: OVCAR-4
[33] = test system: OVCAR-5
[34] = test system: OVCAR-8
[35] = test system: RPMI-8226
[36] = test system: RXF 393
[37] = test system: RXF 631
[38] = test system: SF-268
[39] = test system: SF-295
[40] = test system: SF-539
[41] = test system: SK-MEL-28
[42] = test system: SK-MEL-5
[43] = test system: SK-OV-3
[44] = test system: SN12C
[45] = test system: SNB-19
[46] = test system: SNB-75
[47] = test system: SNB-78
[48] = test system: SR
[49] = test system: SW-620
[50] = test system: TK-10
[51] = test system: U-251
[52] = test system: UACC-257
[53] = test system: UACC-62
[54] = test system: UO-31
[55] = test system: XF498
[56] = test system: BT-549
[57] = test system: CAKI-1
[58] = test system: DU-145
[59] = test system: Hs-578T
[60] = test system: MDA-MB-231
[61] = test system: MDA-N
[62] = test system: NCI-H226
[63] = test system: NCI-H522
[64] = test system: NCI/ADR-RES
[65] = test system: PC-3
[66] = test system: SK-MEL-2
[67] = test system: T47D

O=C(O)C1CCCCN1C(=O)c1ccccc1 (stereo not drawn)
GI50 [1]: > 100 µM (inactive) | GI50 [2]: > 100 µM (inactive) | GI50 [3]: > 100 µM (inactive) | GI50 [4]: > 100 µM (inactive) | GI50 [5]: > 100 µM (inactive) | GI50 [6]: > 100 µM (inactive) | GI50 [7]: > 100 µM (inactive) | GI50 [8]: > 100 µM (inactive) | GI50 [9]: > 100 µM (inactive) | GI50 [10]: > 100 µM (inactive) | GI50 [11]: > 100 µM (inactive) | GI50 [12]: > 100 µM (inactive) | GI50 [13]: > 100 µM | GI50 [14]: > 100 µM (inactive) | GI50 [15]: > 100 µM (inactive) | GI50 [16]: > 100 µM (inactive) | GI50 [17]: > 100 µM (inactive) | GI50 [18]: > 100 µM (inactive) | GI50 [19]: > 100 µM (inactive) | GI50 [20]: > 100 µM (inactive) | GI50 [21]: > 100 µM (inactive) | GI50 [22]: > 100 µM (inactive) | GI50 [23]: > 100 µM (inactive) | GI50 [24]: > 100 µM (inactive) | GI50 [25]: > 100 µM (inactive) | GI50 [26]: > 100 µM (inactive) | GI50 [27]: > 100 µM (inactive) | GI50 [28]: > 100 µM (inactive) | GI50 [29]: > 100 µM (inactive) | GI50 [30]: > 100 µM (inactive) | GI50 [31]: > 100 µM (inactive) | GI50 [32]: > 100 µM (inactive) | GI50 [33]: > 100 µM (inactive) | GI50 [34]: > 100 µM (inactive) | GI50 [35]: > 100 µM (inactive) | GI50 [36]: > 100 µM (inactive) | GI50 [37]: > 100 µM (inactive) | GI50 [38]: > 100 µM (inactive) | GI50 [39]: > 100 µM (inactive) | GI50 [40]: > 100 µM (inactive) | GI50 [41]: > 100 µM (inactive) | GI50 [42]: > 100 µM (inactive) | GI50 [43]: > 100 µM (inactive) | GI50 [44]: > 100 µM (inactive) | GI50 [45]: > 100 µM (inactive) | GI50 [46]: > 100 µM (inactive) | GI50 [47]: > 100 µM (inactive) | GI50 [48]: > 100 µM (inactive) | GI50 [49]: > 100 µM (inactive) | GI50 [50]: > 100 µM (inactive) | GI50 [51]: > 100 µM (inactive) | GI50 [52]: > 100 µM (inactive) | GI50 [53]: > 100 µM (inactive) | GI50 [54]: > 100 µM (inactive) | GI50 [55]: > 100 µM (inactive)

CNC(=O)OC1/C(C)=C\C(C)C(O)C(OC)CC(C)CC2=C(OC)C(=O)C=C(C2=O)N(C)C(=O)/C(C)=C/C=C\C1OC (stereo not drawn)
GI50 [1]: 4.31 µM (inactive) | GI50 [2]: 18.5 µM (inactive) | GI50 [3]: 14.3 µM (inactive) | GI50 [4]: 8.24 µM (inactive) | GI50 [56]: 5 µM (inactive) | GI50 [57]: 7.4 µM (inactive) | GI50 [5]: 0.938 µM (active) | GI50 [6]: 0.424 µM (active) | GI50 [7]: 1.96 µM (inactive) | GI50 [8]: 4.99 µM (inactive) | GI50 [9]: 3.31 µM (inactive) | GI50 [58]: 9.64 µM (inactive) | GI50 [10]: 11.9 µM (inactive) | GI50 [11]: 4.39 µM (inactive) | GI50 [12]: 8.05 µM (inactive) | GI50 [13]: 6.76 µM | GI50 [15]: 9.27 µM (inactive) | GI50 [16]: 14.4 µM (inactive) | GI50 [17]: 2.8 µM (inactive) | GI50 [18]: 1.19 µM (inactive) | GI50 [59]: 4.03 µM (inactive) | GI50 [19]: 10.8 µM (inactive) | GI50 [20]: 0.578 µM (active) | GI50 [21]: 2.53 µM (inactive) | GI50 [22]: 10.4 µM (inactive) | GI50 [23]: 4.68 µM (inactive) | GI50 [24]: 4.86 µM (inactive) | GI50 [25]: 3.08 µM (inactive) | GI50 [26]: 5 µM (inactive) | GI50 [60]: 2.05 µM (inactive) | GI50 [61]: 1.33 µM (inactive) | GI50 [27]: 0.891 µM (active) | GI50 [28]: 5.69 µM (inactive) | GI50 [62]: 19.5 µM (inactive) | GI50 [29]: 4.86 µM (inactive) | GI50 [30]: 11.1 µM (inactive) | GI50 [63]: 0.879 µM (active) | GI50 [64]: 20 µM (inactive) | GI50 [31]: 3.8 µM (inactive) | GI50 [32]: 9.23 µM (inactive) | GI50 [33]: 13.1 µM (inactive) | GI50 [34]: 7.38 µM (inactive) | GI50 [65]: 11.5 µM (inactive) | GI50 [35]: 1.67 µM (inactive) | GI50 [36]: 2.25 µM (inactive) | GI50 [37]: 15.1 µM (inactive) | GI50 [38]: 9.73 µM (inactive) | GI50 [39]: 24.4 µM (inactive) | GI50 [40]: 8.32 µM (inactive) | GI50 [41]: 2.88 µM (inactive) | GI50 [66]: 8.85 µM (inactive) | GI50 [42]: 7.64 µM (inactive) | GI50 [43]: 10.2 µM (inactive) | GI50 [44]: 3.62 µM (inactive) | GI50 [45]: 36.2 µM (inactive) | GI50 [46]: 14.2 µM (inactive) | GI50 [47]: 7.21 µM (inactive) | GI50 [49]: 0.35 µM (active) | GI50 [67]: 1.57 µM (inactive) | GI50 [50]: 7.64 µM (inactive) | GI50 [51]: 15.2 µM (inactive) | GI50 [52]: 5.02 µM (inactive) | GI50 [53]: 3.84 µM (inactive) | GI50 [54]: 7.69 µM (inactive) | GI50 [55]: 3.72 µM (inactive)

COc1cccc2nc3cc(C)c(C)cc3nc12
GI50 [1]: > 100 µM (inactive) | GI50 [2]: > 100 µM (inactive) | GI50 [3]: > 100 µM (inactive) | GI50 [4]: > 100 µM (inactive) | GI50 [57]: > 100 µM (inactive) | GI50 [5]: > 100 µM (inactive) | GI50 [6]: > 100 µM (inactive) | GI50 [7]: 79.1 µM (inactive) | GI50 [8]: > 100 µM (inactive) | GI50 [9]: > 100 µM (inactive) | GI50 [10]: > 100 µM (inactive) | GI50 [11]: > 100 µM (inactive) | GI50 [12]: > 100 µM (inactive) | GI50 [13]: > 100 µM | GI50 [14]: > 100 µM (inactive) | GI50 [15]: > 100 µM (inactive) | GI50 [16]: > 100 µM (inactive) | GI50 [17]: > 100 µM (inactive) | GI50 [18]: > 100 µM (inactive) | GI50 [19]: > 100 µM (inactive) | GI50 [20]: > 100 µM (inactive) | GI50 [21]: > 100 µM (inactive) | GI50 [22]: > 100 µM (inactive) | GI50 [23]: 96.8 µM (inactive) | GI50 [24]: > 100 µM (inactive) | GI50 [25]: > 100 µM (inactive) | GI50 [26]: > 100 µM (inactive) | GI50 [27]: > 100 µM (inactive) | GI50 [28]: > 100 µM (inactive) | GI50 [62]: > 100 µM (inactive) | GI50 [29]: > 100 µM (inactive) | GI50 [30]: > 100 µM (inactive) | GI50 [63]: 95.9 µM (inactive) | GI50 [31]: > 100 µM (inactive) | GI50 [32]: > 100 µM (inactive) | GI50 [33]: > 100 µM (inactive) | GI50 [34]: > 100 µM (inactive) | GI50 [36]: > 100 µM (inactive) | GI50 [37]: > 100 µM (inactive) | GI50 [38]: > 100 µM (inactive) | GI50 [39]: > 100 µM (inactive) | GI50 [40]: > 100 µM (inactive) | GI50 [41]: > 100 µM (inactive) | GI50 [66]: > 100 µM (inactive) | GI50 [42]: 97.5 µM (inactive) | GI50 [43]: 78.3 µM (inactive) | GI50 [44]: > 100 µM (inactive) | GI50 [45]: > 100 µM (inactive) | GI50 [46]: > 100 µM (inactive) | GI50 [47]: > 100 µM (inactive) | GI50 [48]: > 100 µM (inactive) | GI50 [49]: > 100 µM (inactive) | GI50 [50]: > 100 µM (inactive) | GI50 [51]: > 100 µM (inactive) | GI50 [52]: > 100 µM (inactive) | GI50 [53]: > 100 µM (inactive) | GI50 [54]: 61.2 µM (inactive) | GI50 [55]: > 100 µM (inactive)
